This is an account of results in US5599839A, “Antiviral composition” (The United States of America as represented by the …, priority 1995, dated 1997).

Where two headings read alike, the source gives them in different places.

One data set has as its target protein kinase C. Kind of data set: [3H]PDBu binding to partially purified protein kinase C. The conditions noted are these: read-out: Ki, competition of [3H]PDBu binding to protein kinase C; for comparison; mean±range, 2 experiments. Here is the method: (§1) Incubation was for 30 min at 37° C., after which the cells were chilled, an aliquot removed to determine total counts, and bound counts determined by filtration.

Data set [1] deals with C3H10T1/2 cells. Kind of data set: Release of [3H]arachidonic acid metabolites in C3H10T1/2 cells. The class given is cell-based. The conditions noted are these: Mus musculus, C3H 10T1/2, read-out: Half-maximally effective concentration, release of arachidonic acid metabolites. An excerpt: (§2) Well-characterized biological responses to the phorbol esters include inhibition of binding of epidermal growth factor and release of arachidonic acid metabolites [Dell'Aquila et al.: Cancer Res. 48:3702-3708, (1988)].

Data set [2] deals with HIV-1 (RF variant) in CEM-SS cells. In words: XTT-tetrazolium anti-HIV assay (HIV-1-infected CEM-SS cells). The conditions noted are these: 50 nM. Type of data set: cell-based. An excerpt: (§3) Cancer Inst. […] Cancer Inst. 81:1254-1258, (1989)] but with several modifications.
(§4) Philadelphia: Lippincott, 1988, pp. 305-317; Weislow et al.: J. Nat. Cancer Inst. […] Cancer Inst. 81:1254-1258, (1989)].

Data set [3] has as its system CEM-SS cells. The class given is cell-based, human.
Description: as §3, §4

For data set [4] the following is noted: cited from earlier work.
The subject of data set [5] is C3H10T1/2 cells. Kind of data set: Inhibition of 125I-epidermal growth factor binding in C3H10T1/2 cells. Type of data set: cell-based.
Description: as §2

The next data set in a line: in vitro. The note with it: human, cem-ss cells. Here is the method: (§5) Trypan blue dye exclusion was employed for secondary evaluation of drug toxicity and antiviral protection over time. A 50 μl aliquot of cells was removed from each test well and mixed with 100 μl of 0.4% trypan blue. The percentage of viable cells was determined microscopically by direct hemocytometer counts.

Data set [6] relates to CEM-SS cells. In words: in vitro. The note with it: HIV-1-infected, prostratin-treated (FIG. 4). On the procedure:
as §5

The test system of data set [7] is CEM-SS cells. The class given is binding, human. The note with it: for Ki: read-out: Ki, inhibition of [3H]PDBu binding to CEM cells. On the procedure:
as §1
Binding affinities of phorbol esters in cells are typically lower than those obtained with reconstituted protein kinase C [Blumberg et al.: in Mechanism of Tumor Promotion, Vol. 3. Tumor Promotion and Cocarcinogenesis in vitro, (Slaga T. J., ed.) Boca Raton, Fla.: CRC Press, 1984, pp. 143-184], presumably reflecting the role of cellular calcium and phospholipid composition on binding [Konig et al.: J. Cell. Biochem. 7:255-265, (1985)]. […] The usual binding protocol were cells omits serum, because of reportedly variable effects of serum on binding [Blumberg et al.: in Mechanism of Tumor Promotion, Vol. 3. Tumor Promotion and Cocarcinogenesis in vitro, (Slaga T. J., ed.) Boca Raton, Fla.: CRC Press, 1984, pp. 143-184].

The test system of a further data set is HIV-1 p24. In words: microbe, parasite or virus in culture. The conditions noted are these: Human immunodeficiency virus 1, 144 h, read-out: Concentration at which p24 viral antigen production is strikingly inhibited (as low as). On the procedure: (§6) The XTT-tetrazolium anti-HIV assay was performed on crude extracts, chromatographic fractions and pure compounds as previously described [Weislow et al.: J. Nat. Cancer Inst. 81:577-586, (1989) and Gustafson et al.: J. Nat. Cancer Inst. 81:1254-1258, (1989)] but with several modifications. The human T-lymphoblastic cell line CEM-SS [Nara et al.: AIDS Res. Hum. […] Concentrated pellets of CEM-SS cells were incubated with the free virus for 1 hour at 37° C. The cells were then diluted and inoculated into round-bottomed 96-well microtiter plates (Corning) at a density of 5000 cells/well. Test compounds and the appropriate controls were then added to the wells, and the plates were incubated for 6 days. At the end of the incubation period cell growth parameters and HIV-1 activities were determined.
(§7) Aliquots of supernatant fluid from the test wells of the tetrazolium assay were removed prior to the time of XTT addition for quantitation of residual infectious virus using the syncytium assay described by Nara et al. [Nara et al.: AIDS Res. Hum. Retroviruses 3:283:302, (1987)].

The test system of data set [8] is HIV-1 (RF variant) in CEM-SS cells. In words: microbe, parasite or virus in culture. The note with it: Human immunodeficiency virus 1, CEM-SS, 144 h, read-out: Concentration at which syncytium formation (infectious virions) is strikingly inhibited (as low as). On the procedure: as §6, §7

For the compound `CC1=C[C@H]2[C@@]3(O)[C@H](C)C[C@]4(OC(=O)C(C)C)[C@H]([C@@H]3C=C(CO)C[C@]2(O)C1=O)C4(C)C` [12-deoxyphorbol 13-isobutyrate], on protein kinase C, the inhibitory constant (Ki) came out at 2.1 ± 0.1 nM.
`CCCC(=O)O[C@@H]1[C@@H](C)[C@@]2(O)[C@@H](C=C(CO)C[C@]3(O)C(=O)C(C)=C[C@@H]23)[C@@H]2C(C)(C)[C@]12OC(=O)CCC` [PDBu, phorbol 12,13-dibutyrate, reference compound]: the EC50 in the data set with C3H10T1/2 cells [1] came to 24 nM.
As to `CCCCCCCCCCCCCC(=O)O[C@@H]1[C@@H](C)[C@@]2(O)[C@@H](C=C(CO)C[C@]3(O)C(=O)C(C)=C[C@@H]23)[C@@H]2C(C)(C)[C@]12OC(C)=O` [PMA, phorbol 12-myristate 13-acetate, reference compound], the “Protection against HIV-1” value in data set [2] is listed as “protective against HIV-1”. For the same compound, the Cytostatic effect entry with CEM-SS cells [3] (50 nM) is given as “cytostatic”.
For the compound `CC(=O)O[C@@]12C[C@@H](C)[C@@]3(O)[C@@H](C=C(CO)C[C@]4(O)C(=O)C(C)=C[C@@H]34)[C@@H]1C2(C)C` [prostratin], the Tumor promoting activity entry in data set [4] (general statement, no test described) is listed as “substantially lacks tumor promoting activity”; in data set [4] (reported, Zayed et al. 1977), “not a tumor promoter”. The “Inhibition of binding of epidermal growth factor” value in the data set with C3H10T1/2 cells [5] is recorded as “induces both of these responses”. In the data set “in vitro”, this compound displayed a viability of over 90%. The “Cell viability, infected cultures” value in the data set with CEM-SS cells [6] is recorded as “greater than 90%”. The Ki in the data set on CEM-SS cells [7] (10% fetal calf serum, one experiment) came out at 190 nM; in the data set on CEM-SS cells [7] (without serum, 30 min at 37° C, mean±range, 2 experiments), 210 ± 30 nM. The EC50 in the data set with C3H10T1/2 cells [1] worked out at 1100 nM. For the same compound, in the data set with CEM-SS cells [3] (1.0-200 μg/ml, uninfected CEM-SS, 6 days), the “Growth-inhibitory (cytostatic) effect on uninfected control cultures” value is “marked growth-inhibitory, or cytostatic, effect”. The minimal effective concentration (in the data set on HIV-1 p24; in data set [8]) was at most 1 µg/mL in each case.
As to “[^3 H]phorbol 12,13-dibutyrate [[^3 H]PDBu, reference compound]”, the “Bmax in CEM-SS cells” value in the data set with CEM-SS cells [7] (mean±range, 2 experiments) is 1.2±0.1 pmol/mg protein. Also, in the data set on CEM-SS cells [7] (mean±range, 2 experiments, read-out: Binding affinity in CEM-SS cells), the Kd is 4.9 ± 0.8 nM.
